ChEMBL document CHEMBL3045692, “Effectiveness of cyproconazole to control Armillaria root rot of apple, walnut and kiwifruit” (Crop Prot, 2012)
Converted amounts (≈) assume the structure as drawn.

How the values were obtained:
Armillaria mellea [1] = experiment: Fungicidal activity against Armillaria mellea infected walnut assessed as mycelial growth inhibition at Caddy 10WP formulation at 25 degC measured every week for 1 month; format: functional, organism-based
Armillaria mellea [2] = experiment: Fungicidal activity against Armillaria mellea infected kiwifruit assessed as mycelial growth inhibition at Caddy 10WP formulation at 25 degC measured every week for 1 month; format: functional, organism-based
Armillaria mellea [3] = experiment: Fungicidal activity against Armillaria mellea infected apple assessed as mycelial growth inhibition at Caddy 10WP formulation at 25 degC measured every week for 1 month; format: functional, organism-based
Armillaria mellea [4] = experiment: Fungicidal activity against Armillaria mellea infected walnut assessed as mycelial growth inhibition at 30 mg/l formulated as Caddy 10WP at 25 degC measured every week for 1 month (reference value: 0%); format: functional; conditions: read-out: GI
Armillaria mellea [5] = experiment: Fungicidal activity against Armillaria mellea infected walnut assessed as mycelial growth inhibition at 25 mg/l formulated as Caddy 10WP at 25 degC measured every week for 1 month (reference value: 0%); format: functional; conditions: read-out: GI
Armillaria mellea [6] = experiment: Fungicidal activity against Armillaria mellea infected walnut assessed as mycelial growth inhibition at 20 mg/l formulated as Caddy 10WP at 25 degC measured every week for 1 month (reference value: 0%); format: functional; conditions: read-out: GI
Armillaria mellea [7] = experiment: Fungicidal activity against Armillaria mellea infected walnut assessed as mycelial growth inhibition at 15 mg/l formulated as Caddy 10WP at 25 degC measured every week for 1 month (reference value: 0%); format: functional; conditions: read-out: GI
Armillaria mellea [8] = experiment: Fungicidal activity against Armillaria mellea infected walnut assessed as mycelial growth inhibition at 10 mg/l formulated as Caddy 10WP at 25 degC measured every week for 1 month (reference value: 0%); format: functional; conditions: read-out: GI
Armillaria mellea [9] = experiment: Fungicidal activity against Armillaria mellea infected walnut assessed as mycelial growth inhibition at 5 mg/l formulated as Caddy 10WP at 25 degC measured every week for 1 month (reference value: 0%); format: functional; conditions: read-out: GI
Armillaria mellea [10] = experiment: Fungicidal activity against Armillaria mellea infected kiwifruit assessed as mycelial growth inhibition at 30 mg/l formulated as Caddy 10WP at 25 degC measured every week for 1 month (reference value: 0%); format: functional; conditions: read-out: GI
Armillaria mellea [11] = experiment: Fungicidal activity against Armillaria mellea infected kiwifruit assessed as mycelial growth inhibition at 25 mg/l formulated as Caddy 10WP at 25 degC measured every week for 1 month (reference value: 0%); format: functional; conditions: read-out: GI
Armillaria mellea [12] = experiment: Fungicidal activity against Armillaria mellea infected kiwifruit assessed as mycelial growth inhibition at 20 mg/l formulated as Caddy 10WP at 25 degC measured every week for 1 month (reference value: 0%); format: functional; conditions: read-out: GI
Armillaria mellea [13] = experiment: Fungicidal activity against Armillaria mellea infected kiwifruit assessed as mycelial growth inhibition at 15 mg/l formulated as Caddy 10WP at 25 degC measured every week for 1 month (reference value: 0%); format: functional; conditions: read-out: GI
Armillaria mellea [14] = experiment: Fungicidal activity against Armillaria mellea infected kiwifruit assessed as mycelial growth inhibition at 10 mg/l formulated as Caddy 10WP at 25 degC measured every week for 1 month (reference value: 0%); format: functional; conditions: read-out: GI
Armillaria mellea [15] = experiment: Fungicidal activity against Armillaria mellea infected kiwifruit assessed as mycelial growth inhibition at 5 mg/l formulated as Caddy 10WP at 25 degC measured every week for 1 month (reference value: 0%); format: functional; conditions: read-out: GI
Armillaria mellea [16] = experiment: Fungicidal activity against Armillaria mellea infected apple assessed as mycelial growth inhibition at 30 mg/l formulated as Caddy 10WP at 25 degC measured every week for 1 month (reference value: 0%); format: functional; conditions: read-out: GI
Armillaria mellea [17] = experiment: Fungicidal activity against Armillaria mellea infected apple assessed as mycelial growth inhibition at 25 mg/l formulated as Caddy 10WP at 25 degC measured every week for 1 month (reference value: 0%); format: functional; conditions: read-out: GI
Armillaria mellea [18] = experiment: Fungicidal activity against Armillaria mellea infected apple assessed as mycelial growth inhibition at 20 mg/l formulated as Caddy 10WP at 25 degC measured every week for 1 month (reference value: 0%); format: functional; conditions: read-out: GI
Armillaria mellea [19] = experiment: Fungicidal activity against Armillaria mellea infected apple assessed as mycelial growth inhibition at 15 mg/l formulated as Caddy 10WP at 25 degC measured every week for 1 month (reference value: 0%); format: functional; conditions: read-out: GI
Armillaria mellea [20] = experiment: Fungicidal activity against Armillaria mellea infected apple assessed as mycelial growth inhibition at 10 mg/l formulated as Caddy 10WP at 25 degC measured every week for 1 month (reference value: 0%); format: functional; conditions: read-out: GI
Armillaria mellea [21] = experiment: Fungicidal activity against Armillaria mellea infected apple assessed as mycelial growth inhibition at 5 mg/l formulated as Caddy 10WP at 25 degC measured every week for 1 month (reference value: 0%); format: functional; conditions: read-out: GI

SMILES: CC(C1CC1)C(O)(Cn1cncn1)c1ccc(Cl)cc1 (stereo unspecified) [CYPROCONAZOLE]
- EC50 (Armillaria mellea [1]): 6.73 µg/mL (≈ 23.1 µM)
- EC50 (Armillaria mellea [2]): 5.72 µg/mL (≈ 19.6 µM)
- EC50 (Armillaria mellea [3]): 5.19 µg/mL (≈ 17.8 µM)
- inhibition of growth at 30 µg/mL (Armillaria mellea [4]): 100%
- inhibition of growth at 25 µg/mL (Armillaria mellea [5]): 100%
- inhibition of growth at 20 µg/mL (Armillaria mellea [6]): 100%
- inhibition of growth at 15 µg/mL (Armillaria mellea [7]): 95%
- inhibition of growth at 10 µg/mL (Armillaria mellea [8]): 73%
- inhibition of growth at 5 µg/mL (Armillaria mellea [9]): 41%
- inhibition of growth at 30 µg/mL (Armillaria mellea [10]): 100%
- inhibition of growth at 25 µg/mL (Armillaria mellea [11]): 100%
- inhibition of growth at 20 µg/mL (Armillaria mellea [12]): 100%
- inhibition of growth at 15 µg/mL (Armillaria mellea [13]): 100%
- inhibition of growth at 10 µg/mL (Armillaria mellea [14]): 86%
- inhibition of growth at 5 µg/mL (Armillaria mellea [15]): 47%
- inhibition of growth at 30 µg/mL (Armillaria mellea [16]): 100%
- inhibition of growth at 25 µg/mL (Armillaria mellea [17]): 100%
- inhibition of growth at 20 µg/mL (Armillaria mellea [18]): 100%
- inhibition of growth at 15 µg/mL (Armillaria mellea [19]): 98%
- inhibition of growth at 10 µg/mL (Armillaria mellea [20]): 89%
- inhibition of growth at 5 µg/mL (Armillaria mellea [21]): 56%
